These results are taken from patent US5081121A, “4(1H)-quinolone derivatives” (priority 1988, dated 1992).

The subject of assay [1] is left atrial muscle. As to the kind of experiment: Test Method 1: enhancement of contracting force of left atrial muscle extirpated from a guinea pig (electrically stimulated at 1 Hz). The format is cell-based. The settings on record: Cavia porcellus, Krebs-Henseleit solution 32° C.; for EC20: read-out: EC20 (molar concentration for enhancing the left atrial muscle contracting force to the level of 20%); for EC50: read-out: EC50 (molar concentration for enhancing the left atrial muscle contracting force to the level of 50%); for EC100: read-out: EC100 (molar concentration for enhancing the left atrial muscle contracting force to the level of 100%). The protocol:
(§1) The drug according to the present invention was evaluated with reference to the physiological activities by means of a method using an atrial muscle extirpated from a guinea pig.
(§2) Male guinea pigs having a body weight of 300-500 g were made swooned by striking his head and were bleeded to death. The heart was extirpated and the right and left atrial muscles were cut off. The tops of each atrial muscle were fixed with cerrefines. The muscle was suspended into an organ-bath in which a Krebs-Henseleit solution (at 32° C.) was filled, and a 95% O2 -5% CO2 gas was flown through the bath. The left atrial muscle was stimulated electrically at a frequency of 1 Hz to stabilize the contracting force of the left atrial muscle. Then, the compounds according to the present invention represented by the general formulae were added to the organ-bath. As for the right atrial muscle, after the pulsation was stabilized, the compounds according to the present invention were added in the organ-bath in the same manner as described above.
(§3) The compounds according to the present invention represented by the aforementioned general formulae enhanced the left atrial muscle contracting force dependent on their concentrations. The drug concentrations for enhancing the left atrial muscle contracting force to the levels of 20%, 50% and 100%, respectively are listed in Table 2. EC20, EC50 and EC100 indicate the molar concentration for enhancing the left atrial muscle contracting force to the levels of 20%, 50% and 100%, respectively. The enhancing rates of the pulsation of the right atrial muscle are also listed within parentheses. The minus values in parentheses indicate that the pulsation of the right atrial muscle is decreased.
(§4) As a control drug, theophylline ([…].

The subject of assay [2] is right atrial muscle. Kind of assay: Test Method 1: enhancing rate of the pulsation of the right atrial muscle extirpated from a guinea pig. The format is cell-based. The conditions noted are these: minus values: pulsation is decreased. The protocol: as §1, §2, §3, §4

Consider `CCOC(=O)c1c[nH]c2c(OC)ccc(-c3ccccc3)c2c1=O` [Compound 37, 3-ethoxycarbonyl-8-methoxy-5-phenyl-4(1H)-quinolone], for which, in assay [1], the EC20 worked out at 1.58 µM, the EC50 is 7.5 µM and the EC100 is 37.2 µM. Also, in assay [2], the “enhancing rate of the pulsation of the right atrial muscle (in parentheses under EC20)” value (“enhancing rate … (in parentheses under EC20)” for short) was -1.3%, the “enhancing rate of the pulsation of the right atrial muscle (in parentheses under EC100)” value (from here on “enhancing rate … (in parentheses under EC100)”) is recorded as -5.0% and the “enhancing rate of the pulsation of the right atrial muscle (in parentheses under EC50)” value (from here on “enhancing rate … (in parentheses under EC50)”) was -2.2%.

As to `CCOC(=O)c1cn(CC)c2c(OC)cc([S+](C)[O-])cc2c1=O` (centres unmarked) [Compound 39, 3-ethoxycarbonyl-1-ethyl-8-methoxy-6-methylsulfinyl-4(1H)-quinolone], in assay [1], the EC20 was determined as 13.5 µM and the EC50 worked out at 67.6 µM. In assay [2], the “enhancing rate … (in parentheses under EC20)” value was -7.7% and the “enhancing rate … (in parentheses under EC50)” value is reported as -12.1%.

For `CCOC(=O)c1cn(CC)c2c(OC)cc(S(C)(=O)=O)cc2c1=O` [Compound 40, 3-ethoxycarbonyl-1-ethyl-8-methoxy-6-methylsulfonyl-4(1H)-quinolone], in assay [1], the EC20 is 4.57 µM and the EC50 worked out at 36.3 µM. In assay [2], the “enhancing rate … (in parentheses under EC20)” value is -4.5% and the “enhancing rate … (in parentheses under EC50)” value is -16.0%.

Regarding `COc1ccc(OC)c(/C=C/c2ccc3[nH]ccc(=O)c3c2)c1` [Compound 46, 6-[2-trans-(2,5-dimethoxyphenyl)vinyl]-4(1H)-quinolone], in assay [1], the EC20 came to 45.7 µM and the EC50 was 162 µM. For the same molecule, in assay [2], the “enhancing rate … (in parentheses under EC20)” value is -1.0% and the “enhancing rate … (in parentheses under EC50)” value stood at 3.5%.

`CCOc1cc2c(=O)ccn(CC)c2cc1OC` [Compound 49, 6-ethoxy-1-ethyl-7-methoxy-4(1H)-quinolone]: in assay [1], the EC20 was 16.8 µM, the EC50 was found to be 62.4 µM and the EC100 was found to be 229 µM. In assay [2], the “enhancing rate … (in parentheses under EC20)” value is -2.5%, the “enhancing rate … (in parentheses under EC100)” value is 10.2% and the “enhancing rate … (in parentheses under EC50)” value is on record as -1.0%.

For `CCCCOc1cc2[nH]ccc(=O)c2cc1OC` [Compound 52, 7-n-butoxy-6-methoxy-4(1H)-quinolone], in assay [1], the EC20 worked out at 37.6 µM, the EC50 worked out at 115 µM and the EC100 stood at 422 µM. For the same molecule, in assay [2], the “enhancing rate … (in parentheses under EC20)” value was -1.0%, the “enhancing rate … (in parentheses under EC100)” value is listed as -20.0% and the “enhancing rate … (in parentheses under EC50)” value is on record as -1.2%.

For the molecule `CCOc1cc2c(cc1OC)c(=O)ccn2CC` [Compound 58, 7-ethoxy-1-ethyl-6-methoxy-4(1H)-quinolone], in assay [1], the EC20 amounted to 8.13 µM and the EC50 was found to be 47.3 µM. In addition, in assay [2], the “enhancing rate … (in parentheses under EC20)” value came out at 3.0% and the “enhancing rate … (in parentheses under EC50)” value came out at 13.5%.

For the molecule `CCn1ccc(=O)c2cc(C)ccc21` [Compound 59, 1-ethyl-6-methyl-4(1H)-quinolone], in assay [1], the EC20 is 12.3 µM, the EC50 is 68.4 µM and the EC100 is 279 µM. Further, in assay [2], the “enhancing rate … (in parentheses under EC20)” value is listed as -2.0%, the “enhancing rate … (in parentheses under EC100)” value is -3.0% and the “enhancing rate … (in parentheses under EC50)” value is recorded as -2.7%.

`CCOC(=O)c1cn(CC)c2c(OCC)cc(OC)cc2c1=O` [Compound 78, 8-ethoxy-3-ethoxycarbonyl-1-ethyl-6-methoxy-4(1H)-quinolone]: in assay [1], the EC20 turned out to be 8.41 µM and the EC50 stood at 75 µM. For the same molecule, in assay [2], the “enhancing rate … (in parentheses under EC20)” value was -6.2% and the “enhancing rate … (in parentheses under EC50)” value was -25.0%.

Consider `CCOC(=O)c1cn(CC)c2c(C)c(C)ccc2c1=O` [Compound 81, 7,8-dimethyl-3-ethoxycarbonyl-1-ethyl-4(1H)-quinolone], for which, in assay [1], the EC20 amounted to 35.5 µM and the EC50 came out at 57.5 µM. In addition, in assay [2], the “enhancing rate … (in parentheses under EC20)” value was -10.5% and the “enhancing rate … (in parentheses under EC50)” value is on record as -15.0%.

For the molecule `CCOC(=O)c1c[nH]c2c(C)cc(N(CC)CC)cc2c1=O` [Compound 84, 6-diethylamino-3-ethoxycarbonyl-8-methyl-4(1H)-quinolone], in assay [1], the EC20 is 35.9 µM, the EC50 is 57.5 µM and the EC100 was found to be 126 µM. In assay [2], the “enhancing rate … (in parentheses under EC20)” value is -3.0%, the “enhancing rate … (in parentheses under EC100)” value is given as -11.5% and the “enhancing rate … (in parentheses under EC50)” value was -6.5%.

`CCOc1cc2c(=O)c(C(=O)O)cn(CC)c2cc1OC` [Compound 86, 3-carboxyl-6-ethoxy-1-ethyl-7-methoxy-4(1H)-quinolone]: in assay [1], the EC20 turned out to be 30 µM and the EC50 is 125 µM. Moreover, in assay [2], the “enhancing rate … (in parentheses under EC20)” value is 1.5% and the “enhancing rate … (in parentheses under EC50)” value is given as 8.5%.

For `COc1ccc(-c2ccccc2)c2c(=O)c(C(=O)O)c[nH]c12` [Compound 91, 3-carboxyl-8-methoxy-5-phenyl-4(1H)-quinolone], in assay [1], the EC20 came out at 13.3 µM, the EC50 is 119 µM and the EC100 was 750 µM. Also, in assay [2], the “enhancing rate … (in parentheses under EC20)” value is 2.3% and the “enhancing rate … (in parentheses under EC50)” value worked out at 16.0%.

With `CCOc1cc2c(cc1OC)c(=O)c(C(=O)O)cn2C` [Compound 92, 3-carboxyl-7-ethoxy-6-methoxy-1-methyl-4(1H)-quinolone], in assay [1], the EC20 worked out at 4.73 µM and the EC50 worked out at 37.6 µM. Also, in assay [2], the “enhancing rate … (in parentheses under EC20)” value was 1.0% and the “enhancing rate … (in parentheses under EC50)” value is 6.0%.

`CCn1c(-c2cccs2)cc(=O)c2ccccc21` [Compound 97, 1-ethyl-2-(2-thienyl)-4(1H)-quinolone]: in assay [1], the EC20 was found to be 4.52 µM and the EC50 stood at 50.7 µM. Moreover, in assay [2], the “enhancing rate … (in parentheses under EC20)” value is on record as -1.0% and the “enhancing rate … (in parentheses under EC50)” value is recorded as -3.0%.

Regarding `O=c1cc(-c2cccs2)[nH]c2ccccc12` [Compound 100, 2-(2-thienyl)-4(1H)-quinolone], in assay [1], the EC20 came out at 5.43 µM and the EC50 stood at 18.8 µM. Moreover, in assay [2], the “enhancing rate … (in parentheses under EC20)” value is listed as 1.8% and the “enhancing rate … (in parentheses under EC50)” value is on record as 3.5%.

`CCOc1cc2c(cc1OC)c(=O)cc(-c1ccco1)n2CC` [Compound 101, 7-ethoxy-1-ethyl-2-(2-furyl)-6-methoxy-4(1H)-quinolone]: in assay [1], the EC20 was 1.68 µM, the EC50 came out at 19.5 µM and the EC100 came out at 89.1 µM. In assay [2], the “enhancing rate … (in parentheses under EC20)” value is -1.0%, the “enhancing rate … (in parentheses under EC100)” value amounted to 0.0% and the “enhancing rate … (in parentheses under EC50)” value was -2.8%.

In the case of `CCOc1cc2c(cc1OC)c(=O)cc(-c1cccs1)n2CC` [Compound 102, 7-ethoxy-1-ethyl-6-methoxy-2-(2-thienyl)-4(1H)-quinolone], in assay [1], the EC20 amounted to 2.51 µM and the EC50 worked out at 40.3 µM. Also, in assay [2], the “enhancing rate … (in parentheses under EC20)” value was -0.2% and the “enhancing rate … (in parentheses under EC50)” value was -5.2%.

For the molecule `C=CCn1c(C2CC2)cc(=O)c2cc(OC)c(OCC)cc21` [Compound 103, 1-allyl-2-cyclopropyl-7-ethoxy-6-methoxy-4(1H)-quinolone], in assay [1], the EC20 was determined as 3 µM, the EC50 was 34.3 µM and the EC100 is 162 µM. In addition, in assay [2], the “enhancing rate … (in parentheses under EC20)” value is given as -2.0%, the “enhancing rate … (in parentheses under EC100)” value stood at 1.2% and the “enhancing rate … (in parentheses under EC50)” value was 0.5%.

With `COc1ccc(Cn2c(C3CC3)cc(=O)c3cc(OC)c(OC)cc32)cc1` [Compound 104, 2-cyclopropyl-6,7-dimethoxy-1-(4-methoxybenzyl)-4(1H)-quinolone], in assay [1], the EC20 turned out to be 11.5 µM and the EC50 came to 51.9 µM. Besides, in assay [2], the “enhancing rate … (in parentheses under EC20)” value is on record as -3.5% and the “enhancing rate … (in parentheses under EC50)” value is -0.5%.
